Experimental data reported in patent publication US7041869B2, “Transgenic luciferase mouse” (Sloan-Kettering Institute for Cancer Research, priority 2002, dated 2006).
“Also recorded” adds a separate entry of the source.

Experiments:
[1] = test system: PDGF-driven gliomas; experiment: Elux bioluminescence imaging of PDGF-induced gliomas during treatment; format: in vivo, mice
Description: As an illustration of the use of Elux in somatic cell gene transfer models, the inventors have generated gliomas in mice harboring the Elux transgene. The Elux transgenic line was crossed with the Ntv-a transgenic mouse line. These doubly transgenic mice were then infected at birth with RCAS-PDGF. The mice were injected intracranially with one microliter containing 10^4 DF-1 cells, a chicken fibroblast cell line that are infected with and producing the RCAS-PDGF virus. This vector encodes the PDGF B coding region downstream of the env gene and expressed from the LTR on a message that splices out the viral genes. The injection passed through the striatum, just anterior to the ventricle, until the tip of the needle just touches the skull base. The producer cells survived for only a few days within the parenchyma of the mouse brain and during this time they produced virus and infected adjacent cells expressing the receptor for RCAS, tv-a. The mice were then observed for the development of signs of intracranial pathology including weight loss, lethargy, and macrocephaly. These mice were analyzed for expression of luciferase by i.v. injection with luciferin and imaging for bioluminescence with a CCD camera as discussed in detail below.
Animals were weighed prior to the acquisition session for proper dosage calculations. […] The solution was sterilized by filtration through 0.22 μm syringe filter. Individual dosages were drawn into sterile insulin syringes for each animal based on the body weight. Prior to the injection, individual syringes were kept in dark.
Oxygen flow was turned on and set for 1 l/min flow. […] For the induction of anesthesia, the animal was placed into the induction chamber and general activity and respiration rate were monitored. […]
Bioluminescent acquisition was performed according to the IVIS™ Imaging System (Xenogen). […] It was selected empirically, based on prior in vitro characterization of luminescence of transfected cells and the intensity of luminescence signal obtained from the current study. […]

[2] = test system: PDGF signaling in glial cell culture; details: previously demonstrated; cited from earlier work

Clc1ccc(Nc2nnc(Cc3ccncc3)c3ccccc23)cc1 [PTK787]
loss in light emission (bioluminescence) ([1]; Ntv-a/Elux bitransgenic mice with RCAS-PDGF gliomas, 25 mg/kg i.p. daily, in 24–36 hours): 50% | relative falloff of light production across tumors of various light outputs ([1]; four consecutive mice with PDGF-induced gliomas, bioluminescence quantified daily during treatment): essentially parallel responses of decreases in light emission over time; also recorded: proportionally similar | effect on PDGF signaling in glial cell culture [2]: capable of reversing the effects of PDGF signaling
